Measurements published in patent US20090209577A1, “Novel Triazolopyridine Compounds” (PFIZER INC., priority 2004, published 2009).
Where a name gives a salt, the structure may show the parent alone.

Target: T1, human p38 kinase alpha (Homo sapiens, UniProt Q16539)
T1 construct: The coding region of the human p38a cDNA was obtained by PCR-amplification from RNA isolated from the human monocyte cell line THP.1; made in house; host or cells: E. coli DH10B
Experiment: p38 kinase in vitro assay (PHAS-I / 32P-ATP format or EGFRP / 33P-ATP format)
Format: biochemical
Details: activated human p38 kinase alpha, 50 μM unlabeled ATP; two assay formats, table does not say which
Method: The ability of compounds to inhibit human p38 kinase alpha was evaluated using two in vitro assay methods. In the first method, activated human p38 kinase alpha phosphorylates a biotinylated substrate, PHAS-I (phosphorylated heat and acid stable protein-insulin inducible), in the presence of gamma ^32P-ATP (^32P-ATP). PHAS-I was biotinylated prior to the assay and provides a means of capturing the substrate, which is phosphorylated during the assay. p38 Kinase was activated by MKK6. Compounds were tested in 10 fold serial dilutions over the range of 100 μM to 0.001 μM using 1% DMSO. Each concentration of inhibitor was tested in triplicate.
All reactions were carried out in 96 well polypropylene plates. Each reaction well contained 25 mM HEPES pH 7.5, 10 mM magnesium acetate and 50 μM unlabeled ATP. Activation of p38 was required to achieve sufficient signal in the assay. Biotinylated PHAS-1 was used at 1-2 μg per 50 μl reaction volume, with a final concentration of 1.5 μM. Activated human p38 kinase alpha was used at 1 μg per 50 μl reaction volume representing a final concentration of 0.3 μM. Gamma ^32P-ATP was used to follow the phosphorylation of PHAS-1. ^32P-ATP has a specific activity of 3000 Ci/mmol and was used at 1.2 μCi per 50 μl reaction volume. The reaction proceeded either for one hour or overnight at 30° C.
Following incubation, 20 μl of reaction mixture was transferred to a high capacity streptavidin coated filter plate (SAM-streptavidin-matrix, Promega) prewetted with phosphate buffered saline. The transferred reaction mix was allowed to contact the streptavidin membrane of the Promega plate for 1-2 minutes. Following capture of biotinylated PHAS-1 with ^32P incorporated, each well was washed to remove unincorporated ^32P-ATP three times with 2M NaCl, three washes of 2M NaCl with 1% phosphoric, three washes of distilled water and finally a single wash of 95% ethanol. Filter plates were air-dried and 20 μl of scintillant was added. The plates were sealed and counted.
A second assay format was also employed that is based on p38 kinase alpha induced phosphorylation of EGFRP (epidermal growth factor receptor peptide, a 21 mer) in the presence ^33P-ATP. Compounds were tested in 10 fold serial dilutions over the range of 100 μM to 0.001 μM in 1% DMSO. Each concentration of inhibitor was tested in triplicate. Compounds were evaluated in 50 μl reaction volumes in the presence of 25 mM Hepes pH 7.5, 10 mM magnesium acetate, 4% glycerol, 0.4% bovine serum albumin, 0.4 mM DTT, 50 μM unlabeled ATP, 25 μg EGFRP (200 μM), and 0.05 μCi ^33P-ATP. Reactions were initiated by addition of 0.09 μg of activated, purified human GST-p38 kinase alpha. Activation was carried out using GST-MKK6 (5:1, p38:MKK6) for one hour at 30° C. in the presence of 50 μM ATP. Following incubation for 60 minutes at room temperature, the reaction was stopped by addition of 150 μl of AG 1×8 resin in 900 mM sodium formate buffer, pH 3.0 (1 volume resin to 2 volumes buffer). The mixture was mixed three times with pipetting and the resin was allowed to settle. A total of 50 μl of clarified solution head volume was transferred from the reaction wells to Microlite-2 plates. 150 μl of Microscint 40 was then added to each well of the Microlite plate, and the plate was sealed, mixed, and counted.
The above protocol assays were used to determine the IC50 values for compounds in Examples 1-71 above.

T1 sequence (Q16539 whole entry): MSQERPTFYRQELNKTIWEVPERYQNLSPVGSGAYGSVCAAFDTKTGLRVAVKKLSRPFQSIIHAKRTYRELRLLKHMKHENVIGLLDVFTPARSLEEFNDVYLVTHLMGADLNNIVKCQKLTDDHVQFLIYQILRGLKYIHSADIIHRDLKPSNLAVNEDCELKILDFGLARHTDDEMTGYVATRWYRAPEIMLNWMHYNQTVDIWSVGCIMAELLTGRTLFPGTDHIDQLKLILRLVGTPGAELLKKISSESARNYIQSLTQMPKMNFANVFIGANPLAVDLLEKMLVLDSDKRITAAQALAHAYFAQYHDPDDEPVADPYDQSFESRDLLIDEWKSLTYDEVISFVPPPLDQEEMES

IC50 | SMILES
3380 nM | CC(C)c1nnc2cc(Cl)c(Sc3ccc(F)cc3F)c(Cl)n12 [Example 34, 5,7-dichloro-6-[(2,4-difluorophenyl)thio]-3-isopropyl[1,2,4]triazolo[4,3-a]pyridine]
5.3 nM | OCC(O)c1ccc(-c2nnc3ccc(Sc4ccc(F)cc4F)cn23)cc1 (racemic) [Example 31, racemic-1-(4-{6-[(2,4-difluorophenyl)thio][1,2,4]triazolo[4,3-a]pyridin-3-yl}phenyl)ethane-1,2-diol hydrochloride]
7.2 nM | Fc1ccc(Sc2ccc3nnc(-c4c(F)cccc4F)n3c2)c(F)c1 [Example 47, 3-(2,6-difluorophenyl)-6-[(2,4-difluorophenyl)thio][1,2,4]triazolo[4,3-a]pyridine]
319 nM | CC(C)(C)c1nnc2ccc(C(O)c3ccc(F)cc3F)cn12 (centres unmarked) [15 (step 1), (3-tert-butyl[1,2,4]triazolo[4,3-a]pyridin-6-yl)(2,4-difluorophenyl)methanol]
122 nM | CC(C)(C)c1nnc2ccc(Cc3ccc(F)cc3F)cn12 [Example 70, 3-tert-butyl-6-(2,4-difluorobenzyl)[1,2,4]triazolo[4,3-a]pyridine]
17.1 nM | COC(=O)c1ccc(C)c(-c2nnc3ccc(CCc4ccc(F)cc4F)cn23)c1 [Example 17, methyl 3-{6-[2-(2,4-difluorophenyl)ethyl][1,2,4]triazolo[4,3-a]pyridin-3-yl}-4-methylbenzoate]
201 nM | NC(=O)c1ccc(-c2nnc3ccc(Sc4ccc(F)cc4F)cn23)cc1 [Example 23, 4-{6-[(2,4-difluorophenyl)thio][1,2,4]triazolo[4,3-a]pyridin-3-yl}benzamide]
786 nM | CC(C)(C)c1nnc2n1CC(c1ocnc1-c1cc(F)c(F)cc1F)CC2 (centres unmarked) [Example 14, 3-tert-butyl-6-[4-(2,4,5-trifluorophenyl)-1,3-oxazol-5-yl]-5,6,7,8-tetrahydro[1,2,4]triazolo[4,3-a]pyridine]
7420 nM | O=C(O)c1cccc(-c2nnc3ccc(Sc4ccc(F)cc4F)cn23)c1 [Example 64B, 3-{6-[(2,4-difluorophenyl)thio][1,2,4]triazolo[4,3-a]pyridin-3-yl}benzoic acid]
7370 nM | CC(C)c1nnc2ccc(C(=O)Cc3ccc(F)cc3F)cn12 [Example 5, 2-(2,4-difluorophenyl)-1-(3-isopropyl[1,2,4]triazolo[4,3-a]pyridin-6-yl)ethanone]
1740 nM | CC(C)(CC(O)CO)c1nnc2ccc(Sc3ccc(F)cc3F)cn12 (centres unmarked) [Example 33, 4-{6-[(2,4-difluorophenyl)thio][1,2,4]triazolo[4,3,a]pyridin-3-yl}-4-methylpentane-1,2-diol hydrochloride]
50500 nM | CC(C)c1nnc2ccc(Sc3ccc(F)cc3C(F)(F)F)cn12 [Example 53, 6-{[4-fluoro-2-(trifluoromethyl)phenyl]thio}-3-isopropyl[1,2,4]triazolo[4,3-a]pyridine hydrochloride]
19500 nM | CC(C)(C)c1nnc2ccc(OCc3ccc(F)cc3F)cn12 [Example 12, 3-tert-butyl-6-[(2,4-difluorobenzyl)oxy][1,2,4]triazolo[4,3-a]pyridine]
367 nM | CC(=O)OCC(=O)N1CCC(c2nnc3ccc(Sc4ccc(F)cc4F)cn23)CC1 [44 (step 4), 2-(4-{6-[(2,4-difluorophenyl)thio][1,2,4]triazolo[4,3-a]pyridin-3-yl}piperidin-1-yl)-2-oxoethyl acetate hydrochloride]
181 nM | C=Cc1ccc(-c2nnc3ccc(Sc4ccc(F)cc4F)cn23)cc1 [Example 57, 6-[(2,4-difluorophenyl)thio]-3-(4-vinylphenyl)[1,2,4]triazolo[4,3-a]pyridine]
> 100000 nM | CC(C)c1nnc2ccc(C(=O)Nc3ccc(F)cc3F)cn12 [Example 11, N-(2,4-difluorophenyl)-3-isopropyl[1,2,4]triazolo[4,3-a]pyridine-6-carboxamide]

IC50 | SMILES
24.9 nM | CC1(c2nnc3ccc(Sc4ccc(F)cc4F)cn23)CC1 [Example 46, 6-[(2,4-difluorophenyl)thio]-3-(1-methylcyclopropyl)[1,2,4]triazolo[4,3-a]pyridine hydrochloride]
535 nM | CC(C)c1nnc2ccc(/C=C\c3ccc(F)cc3F)cn12 [Example 1, 6-[(Z)-2-(2,4-difluorophenyl)vinyl]-3-isopropyl[1,2,4]triazolo[4,3-a]pyridine]
141 nM | COC(=O)c1cccc(-c2nnc3ccc(Cc4ccc(F)cc4F)cn23)c1 [Example 58, methyl 3-[6-(2,4-difluorobenzyl)[1,2,4]triazolo[4,3-a]pyridin-3-yl]benzoate]
> 100000 nM | O=C(O)c1cccc(-c2nnc3ccc(C(=O)c4ccc(F)cc4F)cn23)c1 [Example 66, 3-[6-(2,4-difluorobenzoyl)[1,2,4]triazolo[4,3-a]pyridin-3-yl]benzoic acid]
12900 nM | COC(=O)c1ccc(C)c(-c2nnc3ccc(Br)cn23)c1 [41 (step 2), methyl 3-(6-bromo[1,2,4]triazolo[4,3-a]pyridin-3-yl)-4-methylbenzoate]
3020 nM | NC(=O)c1ccc(-c2nnc3ccc(Cc4ccc(F)cc4F)cn23)cc1 [Example 27, 4-[6-(2,4-difluorobenzyl)[1,2,4]triazolo[4,3-a]pyridin-3-yl]benzamide]
2980 nM | NC(=O)c1cccc(-c2nnc3ccc(Cc4ccc(F)cc4F)cn23)c1 [Example 28, 3-[6-(2,4-difluorobenzyl)[1,2,4]triazolo[4,3-a]pyridin-3-yl]benzamide]
698 nM | CC1(C)OCC(CC(C)(C)c2nnc3ccc(Sc4ccc(F)cc4F)cn23)O1 (centres unmarked) [33 (step 3), 6-[(2,4-difluorophenyl)thio]-3-[2-(2,2-dimethyl-1,3-dioxolan-4-yl)-1,1-dimethylethyl][1,2,4]triazolo[4,3-a]pyridine hydrochloride]
241 nM | NC(=O)c1cccc(-c2nnc3ccc(Sc4ccc(F)cc4F)cn23)c1 [Example 26, 3-{6-[(2,4-difluorophenyl)thio][1,2,4]triazolo[4,3-a]pyridin-3-yl}benzamide]
28.3 nM | Cc1cc(C(O)CO)ccc1-c1nnc2ccc(Sc3ccc(F)cc3F)cn12 (centres unmarked) [45 (step 4), 1-(4-{6-[(2,4-difluorophenyl)thio][1,2,4]triazolo[4,3-a]pyridin-3-yl}-3-methylphenyl)ethane-1,2-diol hydrochloride]
93.6 nM | O=C(NCCO)c1ccc(-c2nnc3ccc(Sc4ccc(F)cc4F)cn23)cc1 [Example 25, 4-{6-[(2,4-difluorophenyl)thio][1,2,4]triazolo[4,3-a]pyridin-3-yl}-N-(2-hydroxyethyl)benzamide]
> 100000 nM | CC(=O)c1ccc2nnc(C(C)C)n2c1 [Example 4, 1-(3-isopropyl[1,2,4]triazolo[4,3-a]pyridin-6-yl)ethanone]
85 nM | CC(C)c1nnc2ccc(CCc3ccc(F)cc3F)cn12 [Example 2, 6-[2-(2,4-difluorophenyl)ethyl]-3-isopropyl[1,2,4]triazolo[4,3-a]pyridine]
1050 nM | CC(C)(C)c1nnc2ccc(C(=O)c3ccc(F)cc3F)cn12 [Example 15, (3-tert-butyl[1,2,4]triazolo[4,3-a]pyridin-6-yl)(2,4-difluorophenyl)methanone]
> 100000 nM | CC(C)c1nnc2ccc(Sc3ccc(Br)cc3C(F)(F)F)cn12 [Example 51, 6-{[4-bromo-2-(trifluoromethyl)phenyl]thio}-3-isopropyl[1,2,4]triazolo[4,3-a]pyridine hydrochloride]
33.3 nM | Cc1cc(CNCCO)ccc1-c1nnc2ccc(Sc3ccc(F)cc3F)cn12 [Example 45, 2-[(4-{6-[(2,4-difluorophenyl)thio][1,2,4]triazolo[4,3-a]pyridin-3-yl}-3-methylbenzyl)amino]ethanol dihydrochloride]
